Non-standard residues stand in square brackets, D forms with d. Residues, ends and D or L forms follow the SMILES beside them. Nle = CCCC[C@H](N)C(=O)O
Tested on: diabetic foot ulcers
Conditions: human, in vivo
Procedure: The study was designed as a randomized, parallel-group, double-blind, placebo-controlled, multi-center trial. After 14-days of best-of-care to evaluate ulcer healing and ensure the wounds were chronic, four-weeks of active treatment were then followed by eight weeks of observation and assessment. The study compared the effects of two concentrations of NorLeu^3-A(1-7) and placebo, measuring both clinical efficacy and safety. Sustained tissue integrity was evaluated for all subjects during a follow-up period lasting 12 weeks after complete wound closure.
Subjects were randomized in a 1:1:1 ratio to one of the three treatment groups: • Group 1: Placebo Vehicle Control without NorLeu^3-A(1-7) (also referred to as “DSC127”) (2% Hydroxyethyl Cellulose (HEC) with 0.1% methyl paraben, 0.02% propyl paraben) • Group 2: 0.03% NorLeu^3-A(1-7) in Vehicle • Group 3: 0.01% NorLeu^3-A(1-7) in Vehicle
The four-week treatment period required daily application of the treatment to the wound site. The first application each week was at the clinic and for the remainder of the week the patient self-administered the treatment.
If wound healing occurred during the treatment or assessment periods a final assessment visit was conducted and the integrity was assessed 4 and 12 weeks later (usually weeks 16 and 24 of the study). […]

CCCC[C@H](NC(=O)[C@H](CCCNC(=N)N)NC(=O)[C@@H](N)CC(=O)O)C(=O)N[C@@H](Cc1ccc(O)cc1)C(=O)N[C@H](C(=O)N[C@@H](Cc1c[nH]cn1)C(=O)N1CCC[C@H]1C(=O)O)[C@@H](C)CC [NorLeu^3-A(1-7), Asp-Arg-Nle-Tyr-Ile-His-Pro] (H-DR[Nle]YIHP-OH; N-terminus and C-terminus assumed)
adverse events associated with treatment: no significant adverse events | tolerability: well-tolerated

Reference: patent US8536231B2, “Methods for treating diabetic foot ulcers” (priority 2011, dated 2013)
